pEC50: −log10 of the molar value.
tested on: ISG reporter activity in THP1-Dual cell; assay: ISG reporter assay; type: cell-based; details: Homo sapiens, compounds incubated with cells for 24 hours, QUANTI-Blue, absorbance at 655 nm
Experimental: [Worded in the source for another cell line; this cell line is reported under the same test.] THP1-Blue cells (cat. no. thp-isg) were purchased from InvivoGen (Sandiago, USA). Penicillin—streptomycin (cat. no. L0022-100), Fetal Bovine Serum (FBS) (cat. no. S1480-500) and Roswell Park Memorial Institute (RPMI) 1640 media (cat. L0498-500) were purchased from biowest (Nuaille, France). Zeocin (cat. no. ant-zn-OS) and Normocin (cat. no. ant-nr-1) were purchased from InvivoGen (Sandiago, USA). QUANTI-Blue™ (cat. no. rep-qbs) was purchased from InvivoGen. THP1-Blue cells were cultured in RPMI 1640 medium with 10% heat-inactivated FBS, 100 μg/ml Normocin, 100 μg/ml Zeocin and 100 U/ml-100 μg/ml penicillin-streptomycin. The cells were incubated at 37° C. in a humidified atmosphere of 5% CO2.
THP1-Blue cells were seeded at 5×10^4 cells/well (90 μl/well). 10 μl of compounds were added to the cells and incubated for 24 hours. 20 μl of cell culture supernatant was dispensed new 96-well plate (cat. no. 30096) with 180 μl of QUANTI-Blue™ solution and incubated for 15 minutes at 37° C. The absorbance was measured by Varioskan Lux (Thermofisher Scientific, USA) at 655 nm.

pEC50, > 7.30:
CCn1nc(C)cc1C(=O)Nc1nc2cc(C(N)=O)cc(OC)c2n1C/C=C/Cn1c(NC(=O)c2cc(C)nn2CC)nc2cc(C(N)=O)cc(OCC#CC3CCN(S(=O)(=O)N(C)C)CC3)c21 [Example 24, (E)-1-(4-(5-carbamoyl-2-(1-ethyl-3-methyl-1H-pyrazole-5-carboxamido)-7-methoxy-1H-benzo[d]imidazol-1-yl)but-2-en-1-yl)-7-((3-(1-(N,N-dimethylsulfamoyl)piperidin-4-yl)prop-2-yn-1-yl)oxy)-2-(1-ethyl-3-methyl-1H-pyrazole-5-carboxamido)-1H-benzo[d]imidazole-5-carboxamide]
CCn1nc(C)cc1C(=O)Nc1nc2cc(C(N)=O)cc(OC)c2n1C/C=C/Cn1c(NC(=O)c2cc(C)nn2CC)nc2cc(C(N)=O)cc(OCC#CC3CCN(C(=O)c4cc(C)nn4CC)CC3)c21 [Example 13, (E)-1-(4-(5-carbamoyl-2-(1-ethyl-3-methyl-1H-pyrazole-5-carboxamido)-7-methoxy-1H-benzo[d]imidazol-1-yl)but-2-en-1-yl)-7-((3-(1-(1-ethyl-3-methyl-1H-pyrazole-5-carbonyl)piperidin-4-yl)prop-2-yn-1-yl)oxy)-2-(1-ethyl-3-methyl-1H-pyrazole-5-carboxamido)-1H-benzo[d]imidazole-5-carboxamide]
CCn1nc(C)cc1C(=O)Nc1nc2cc(C(N)=O)cc(OC)c2n1C/C=C/Cn1c(NC(=O)c2cc(C)nn2CC)nc2cc(C(N)=O)cc(OCC#CC3CCN(C(=O)NC4CC4)CC3)c21 [Example 14, (E)-1-(4-(5-carbamoyl-2-(1-ethyl-3-methyl-1H-pyrazole-5-carboxamido)-7-methoxy-1H-benzo[d]imidazol-1-yl)but-2-en-1-yl)-7-((3-(1-(cyclopropylcarbamoyl)piperidin-4-yl)prop-2-yn-1-yl)oxy)-2-(1-ethyl-3-methyl-1H-pyrazole-5-carboxamido)-1H-benzo[d]imidazole-5-carboxamide]
CCn1nc(C)cc1C(=O)Nc1nc2cc(C(N)=O)cc(OC)c2n1C/C=C/Cn1c(NC(=O)c2cc(C)nn2CC)nc2cc(C(N)=O)cc(OCC#CC3CCN(S(=O)(=O)C4CCCC4)CC3)c21 [Example 22, (E)-1-(4-(5-carbamoyl-2-(1-ethyl-3-methyl-1H-pyrazole-5-carboxamido)-7-methoxy-1H-benzo[d]imidazol-1-yl)but-2-en-1-yl)-7-((3-(1-(cyclopentylsulfonyl)piperidin-4-yl)prop-2-yn-1-yl)oxy)-2-(1-ethyl-3-methyl-1H-pyrazole-5-carboxamido)-1H-benzo[d]imidazole-5-carboxamide]
CCn1nc(C)cc1C(=O)Nc1nc2cc(C(N)=O)cc(OC)c2n1C/C=C/Cn1c(NC(=O)c2cc(C)nn2CC)nc2cc(C(N)=O)cc(OCC#CC3CCN(S(=O)(=O)C4CC4)CC3)c21 [Example 21, (E)-1-(4-(5-carbamoyl-2-(1-ethyl-3-methyl-1H-pyrazole-5-carboxamido)-7-methoxy-1H-benzo[d]imidazol-1-yl)but-2-en-1-yl)-7-((3-(1-(cyclopropylsulfonyl)piperidin-4-yl)prop-2-yn-1-yl)oxy)-2-(1-ethyl-3-methyl-1H-pyrazole-5-carboxamido)-1H-benzo[d]imidazole-5-carboxamide]
CCn1nc(C)cc1C(=O)Nc1nc2cc(C(N)=O)cc(OC)c2n1C/C=C/Cn1c(NC(=O)c2cc(C)nn2CC)nc2cc(C(N)=O)cc(OCC#CC(C)(C)N3CCN(C(=O)OC(C)(C)C)CC3)c21 [Example 41, tert-butyl (E)-4-(5-((5-carbamoyl-1-(4-(5-carbamoyl-2-(1-ethyl-3-methyl-1H-pyrazole-5-carboxamido)-7-methoxy-1H-benzo[d]imidazol-1-yl)but-2-en-1-yl)-2-(1-ethyl-3-methyl-1H-pyrazole-5-carboxamido)-1H-benzo[d]imidazol-7-yl)oxy)-2-methylpent-3-yn-2-yl)piperazine-1-carboxylate]
